The term EC50 denotes the concentration needed to bring the measured effect to its halfway point.

The results in this text go back to article PMC3743763, “Conformational Changes in the Lower Palm Domain of ASIC1a Contribute to Desensitization and RFamide Modulation” (PLoS ONE, 2013).

The target in assay [1] is T1, wildtype human ASIC1a (Homo sapiens, UniProt P78348).
T1 construct: expressed in transfected cells; host or cells: Xenopus laevis oocytes (nuclear injection of pMT3 expression plasmid)
T1 sequence (P78348 1-528): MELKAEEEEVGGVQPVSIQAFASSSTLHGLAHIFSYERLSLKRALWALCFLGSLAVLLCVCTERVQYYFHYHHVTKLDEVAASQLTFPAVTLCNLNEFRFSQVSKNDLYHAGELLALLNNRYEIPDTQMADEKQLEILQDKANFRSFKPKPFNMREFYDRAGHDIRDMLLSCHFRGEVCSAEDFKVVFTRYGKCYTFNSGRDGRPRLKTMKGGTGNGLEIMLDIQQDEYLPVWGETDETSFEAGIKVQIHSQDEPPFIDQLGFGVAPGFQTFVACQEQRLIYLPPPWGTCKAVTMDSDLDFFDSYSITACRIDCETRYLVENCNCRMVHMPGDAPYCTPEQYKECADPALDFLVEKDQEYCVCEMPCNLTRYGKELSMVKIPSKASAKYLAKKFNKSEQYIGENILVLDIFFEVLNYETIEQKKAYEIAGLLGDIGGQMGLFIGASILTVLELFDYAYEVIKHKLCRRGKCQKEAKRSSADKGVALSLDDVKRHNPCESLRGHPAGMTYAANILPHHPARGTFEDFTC
Kind of assay: FRRFa modulation of acid-evoked currents, two-electrode voltage clamp in Xenopus oocytes. The assay is classed as cell-based. The procedure:
(§1) The Stratagene QuikChange® site-directed mutagenesis kit (Cedar Creek, TX) was used to introduce point mutations into the human ASIC1a cDNA (GENBANK accession number NM_001095) within the pMT3 expression vector. Mutations were confirmed by DNA sequencing at the Plant-Microbe Genomics Facility at The Ohio State University and high quality plasmid DNA was prepared for injection using Qiagen (Valencia, CA) Midi prep kits. Female Xenopus laevis were purchased from Xenopus I (Dexter, MI) and Xenopus oocytes were isolated using standard procedures. This work was implemented in accordance with the Guide for the Care and Use of Laboratory Animals of the National Institutes of Health and approved by the Institutional Animal Care and Use Committee of The Ohio State University (protocol # 2009A0161-R1). The oocyte removal surgery was performed under tricaine methanesulfonate (MS222) anesthesia and all efforts were made to minimize suffering. Ovarian lobes were removed and digested for 1.5-2 hours at room temperature with 1.2 mg/ml collagenase in Modified Barth’s solution lacking calcium (24 mM NaHCO3, 88 mM NaCl, 15 mM HEPES, 1 mM KCl, 0.8 mM MgSO4, 125 units/liter penicillin/streptomycin) to separate individual oocytes and remove follicular membranes. Healthy stage IV and V oocytes were selected and maintained in Modified Barth’s solution containing calcium (0.4 mM CaCl2 and 0. 3 mM Ca(NO3)2). The nuclei of isolated oocytes were injected with ~5 ng of a 100 ng/µl stock of wildtype or mutant ASIC1a expression plasmids using a PV820 pneumatic picopump (World Precision Instruments, Sarasota, FL). Oocytes were incubated at 18 °C for 18-96 hours before experiments were performed. […]
(§2) In order to obtain the pH dependence of activation, basal pH was maintained at pH 7.4. […] Peak current amplitude was measured for each test pH and normalized to the average peak amplitude of flanking pH 5.0 currents to minimize the impact of potential tachyphylaxis. […] As before, maximal currents were measured before and after test conditioning pH to minimize the effect of possible tachyphylaxis of proton-gated current. […]

Assay [2] concerns the target T2, human ASIC1a L280C (Homo sapiens, UniProt P78348, L280C).
T2 construct: expressed in transfected cells; host or cells: Xenopus laevis oocytes (nuclear injection of pMT3 expression plasmid)
T2 sequence (P78348 1-528 L280C): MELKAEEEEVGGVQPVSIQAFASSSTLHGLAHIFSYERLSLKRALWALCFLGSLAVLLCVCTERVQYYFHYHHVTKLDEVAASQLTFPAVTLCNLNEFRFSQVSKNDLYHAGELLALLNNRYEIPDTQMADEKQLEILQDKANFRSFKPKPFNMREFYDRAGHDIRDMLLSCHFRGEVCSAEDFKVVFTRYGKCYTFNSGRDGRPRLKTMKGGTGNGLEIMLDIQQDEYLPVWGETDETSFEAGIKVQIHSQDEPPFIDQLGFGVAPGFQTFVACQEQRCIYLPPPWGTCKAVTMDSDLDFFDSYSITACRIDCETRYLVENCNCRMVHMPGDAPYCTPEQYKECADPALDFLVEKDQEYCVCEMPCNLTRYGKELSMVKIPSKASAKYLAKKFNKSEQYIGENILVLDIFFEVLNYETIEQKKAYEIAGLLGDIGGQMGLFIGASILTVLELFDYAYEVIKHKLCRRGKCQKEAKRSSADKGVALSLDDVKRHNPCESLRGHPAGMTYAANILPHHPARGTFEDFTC
Kind of assay: FRRFa / FRRF (no amide) modulation of acid-evoked currents, two-electrode voltage clamp in Xenopus oocytes. Conditions: mean ± SEM, SEM. The assay is classed as cell-based. The method, then:
as §1, §2
In general terms: Two-electrode voltage clamp is typically applied to oocytes expressing channels or transporters.

Assay [3] has as its target T3, human acid-sensing ion channel 1a (hASIC1a), wild type (human) (UniProt P78348).
T3 sequence: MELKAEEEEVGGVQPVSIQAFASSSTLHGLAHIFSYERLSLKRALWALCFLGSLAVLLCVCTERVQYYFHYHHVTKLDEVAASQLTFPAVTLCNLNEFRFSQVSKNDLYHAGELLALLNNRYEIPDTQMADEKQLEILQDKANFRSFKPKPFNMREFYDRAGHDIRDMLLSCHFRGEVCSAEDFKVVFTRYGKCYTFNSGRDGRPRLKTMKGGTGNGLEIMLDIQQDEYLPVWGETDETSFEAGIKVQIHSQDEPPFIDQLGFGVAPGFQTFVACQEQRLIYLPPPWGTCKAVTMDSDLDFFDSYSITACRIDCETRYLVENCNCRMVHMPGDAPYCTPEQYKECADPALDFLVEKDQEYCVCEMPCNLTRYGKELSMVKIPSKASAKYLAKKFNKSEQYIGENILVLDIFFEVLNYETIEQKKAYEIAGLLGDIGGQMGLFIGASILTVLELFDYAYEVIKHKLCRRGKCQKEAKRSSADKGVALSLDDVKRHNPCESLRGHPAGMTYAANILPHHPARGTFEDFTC

In assay [4] the target is T4, human ASIC1a L280C (human) (UniProt P78348).
T4 sequence: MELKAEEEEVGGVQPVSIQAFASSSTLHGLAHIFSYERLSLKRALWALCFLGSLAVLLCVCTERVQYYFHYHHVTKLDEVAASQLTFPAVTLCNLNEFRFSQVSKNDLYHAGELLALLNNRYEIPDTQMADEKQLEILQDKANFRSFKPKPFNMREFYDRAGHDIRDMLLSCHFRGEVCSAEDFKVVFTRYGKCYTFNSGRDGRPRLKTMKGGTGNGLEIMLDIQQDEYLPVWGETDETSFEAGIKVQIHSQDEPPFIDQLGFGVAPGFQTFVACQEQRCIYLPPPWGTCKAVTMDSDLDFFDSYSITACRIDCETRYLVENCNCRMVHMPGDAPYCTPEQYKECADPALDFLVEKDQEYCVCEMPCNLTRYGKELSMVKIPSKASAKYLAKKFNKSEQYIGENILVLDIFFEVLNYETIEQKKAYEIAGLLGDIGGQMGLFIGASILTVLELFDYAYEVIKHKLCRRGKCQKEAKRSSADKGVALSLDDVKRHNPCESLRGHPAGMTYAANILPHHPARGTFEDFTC

Residues, ends and D or L forms follow the SMILES beside them. No end group written: not given here.

For `N=C(N)NCCC[C@H](NC(=O)[C@H](CCCNC(=N)N)NC(=O)[C@@H](N)Cc1ccccc1)C(=O)N[C@@H](Cc1ccccc1)C(N)=O` [FRRFa, FRRFamide] (H-FRRF-NH2), the “increase in τinact with FRRFamide” value is listed as 45 ± 6% in assay [1] (100 µM FRRFa vs control, mean ± SEM, n = 14, SEM) and 131 ± 16% in assay [2] (100 µM FRRFa vs control, n = 17, p = 6x10^-5 vs wildtype). Moreover, the “difference in response between 100µM and 300µM FRRFa” value in assay [1] (residual current, n = 5, p = 0.69 paired t-test (not significant)) is recorded as 10.42% ± 11.25. The EC50 in assay [1] (responses normalized to 100 µM FRRFa, mean ± SEM, n = 6-8, SEM, read-out: EC50 of FRRFa modulation (effect on residual current)) was 20 ± 4 µM; in assay [2] (responses normalized to 100 µM FRRFa, n = 6-8, p = 0.34 vs wildtype, read-out: EC50 of FRRFa modulation (effect on residual current)) it was 14 ± 4 µM.
In the case of FRRF-NH2 [FRRFamide peptide], the figures for the EC50 of FRRFa modulation of the residual current of pH 5.0-evoked currents (two-electrode voltage clamp, Xenopus oocytes; responses normalised to 100 µM FRRFa) in assay [3] and in assay [4] were 20 µM and 14 µM, respectively.
